Data: PubChem BioAssay AID248 (DTP/NCI, 2004)
Values joined by “and” are separate entries in the source; they are usually repeats but may differ in a detail not shown here. Equal entries are not always repeated. Toxic doses and inconclusive results are not listed. Cut-off read from the data, not from the text of the source: active = T/C of 150% or more; inactive = T/C below 125%.

Tested on: L1210 leukemia ip in BDF1 mice, survival T/C
Assay: NCI In Vivo Anticancer Drug Screen. Data for tumor model L1210 Leukemia (intraperitoneal) in B6D2F1 (BDF1) mice
Conditions: endpoint: mean survival time, higher = longer survival
How it was run: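 Transplanted-tumor mice were given test agent; controls received vehicle only. Survival readings from the two groups were divided (treated over control).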

[1] = dose: 100.0 mg/kg/injection, schedule: Q04DX003 (ip), vehicle: saline with Tween-80
[2] = dose: 200.0 mg/kg/injection, schedule: Q04DX003 (ip), vehicle: saline with Tween-80
[3] = dose: 400.0 mg/kg/injection, schedule: Q04DX003 (ip), vehicle: saline with Tween-80
[4] = dose: 50.0 mg/kg/injection, schedule: Q01DX009 (ip), vehicle: saline
[5] = dose: 100.0 mg/kg/injection, schedule: Q04DX002 (ip), vehicle: Klucel (hydroxypropylcellulose) (HPC)
[6] = dose: 200.0 mg/kg/injection, schedule: Q04DX002 (ip), vehicle: Klucel (hydroxypropylcellulose) (HPC)
[7] = dose: 400.0 mg/kg/injection, schedule: Q04DX002 (ip), vehicle: Klucel (hydroxypropylcellulose) (HPC)
[8] = dose: 100.0 mg/kg/injection, schedule: Q01DX001 (ip), vehicle: Klucel (hydroxypropylcellulose) (HPC)
[9] = dose: 200.0 mg/kg/injection, schedule: Q01DX001 (ip), vehicle: Klucel (hydroxypropylcellulose) (HPC)
[10] = dose: 400.0 mg/kg/injection, schedule: Q01DX001 (ip), vehicle: Klucel (hydroxypropylcellulose) (HPC)
[11] = dose: 100.0 mg/kg/injection, schedule: Q04DX002 (ip), vehicle: saline with Tween-80
[12] = dose: 200.0 mg/kg/injection, schedule: Q04DX002 (ip), vehicle: saline with Tween-80
[13] = dose: 400.0 mg/kg/injection, schedule: Q04DX002 (ip), vehicle: saline with Tween-80
[14] = dose: 100.0 mg/kg/injection, schedule: Q04DX003 (ip), vehicle: Klucel (hydroxypropylcellulose) (HPC)
[15] = dose: 200.0 mg/kg/injection, schedule: Q04DX003 (ip), vehicle: Klucel (hydroxypropylcellulose) (HPC)
[16] = dose: 400.0 mg/kg/injection, schedule: Q04DX003 (ip), vehicle: Klucel (hydroxypropylcellulose) (HPC)
[17] = dose: 100.0 mg/kg/injection, schedule: Q04DX003 (ip), vehicle: saline
[18] = dose: 200.0 mg/kg/injection, schedule: Q04DX003 (ip), vehicle: saline
[19] = dose: 400.0 mg/kg/injection, schedule: Q04DX003 (ip), vehicle: saline
[20] = dose: 100.0 mg/kg/injection, schedule: Q01DX001 (ip), vehicle: saline with Tween-80
[21] = dose: 200.0 mg/kg/injection, schedule: Q01DX001 (ip), vehicle: saline with Tween-80
[22] = dose: 400.0 mg/kg/injection, schedule: Q01DX001 (ip), vehicle: saline with Tween-80
[23] = dose: 100.0 mg/kg/injection, schedule: Q01DX009 (ip), vehicle: Klucel (hydroxypropylcellulose) (HPC)
[24] = dose: 200.0 mg/kg/injection, schedule: Q01DX009 (ip), vehicle: Klucel (hydroxypropylcellulose) (HPC)
[25] = dose: 400.0 mg/kg/injection, schedule: Q01DX009 (ip), vehicle: Klucel (hydroxypropylcellulose) (HPC)

Measured: T/C

NC(N)=N/N=C/C(=N\N=C(N)N)C(O)CO (stereo not drawn)
inactive: dose: 75.0 mg/kg/injection, schedule: Q01DX001 (ip), vehicle: saline 109 % of control and 100 % of control | dose: 150.0 mg/kg/injection, schedule: Q01DX001 (ip), vehicle: saline 105 % of control and 106 % of control | dose: 300.0 mg/kg/injection, schedule: Q01DX001 (ip), vehicle: saline 101 % of control and 105 % of control

Nc1ncnc2sc(SCc3ccccc3)nc12
inactive: [1] 107 % of control | [2] 102 % of control | [3] 100 % of control

O=NN(CCCC(=O)O)C(=O)NCCCC(=O)O
inactive: dose: 25.0 mg/kg/injection, schedule: Q01DX Z (ip), vehicle: carboxymethylcellulose (CMC) 103 % of control | dose: 50.0 mg/kg/injection, schedule: Q01DX Z (ip), vehicle: carboxymethylcellulose (CMC) 90 % of control | dose: 100.0 mg/kg/injection, schedule: Q01DX Z (ip), vehicle: carboxymethylcellulose (CMC) 100 % of control | dose: 200.0 mg/kg/injection, schedule: Q01DX Z (ip), vehicle: carboxymethylcellulose (CMC) 94 % of control | dose: 300.0 mg/kg/injection, schedule: Q01DX Z (ip), vehicle: carboxymethylcellulose (CMC) 95 % of control

CCOP(=O)(OCC)N(C(=O)O)C1CCCCC1
inactive: [4] 96 % of control | dose: 100.0 mg/kg/injection, schedule: Q01DX009 (ip), vehicle: saline 109 % of control | dose: 200.0 mg/kg/injection, schedule: Q01DX009 (ip), vehicle: saline 108 % of control | dose: 400.0 mg/kg/injection, schedule: Q01DX009 (ip), vehicle: saline 105 % of control

CN(C)C(=O)Nc1ccc(C#N)cc1
inactive: [5] 89 % of control | [6] 103 % of control | [7] 106 % of control

CC(/C=C/c1ccc2c(c1)OCO2)[N+](=O)[O-] (stereo not drawn)
inactive: [8] 103 % of control | [9] 103 % of control | [10] 106 % of control

Oc1ccccc1C=Nc1ccccc1O
inactive: dose: 33.0 mg/kg/injection, schedule: Q04DX002 (ip), vehicle: gum acacia 103 % of control | dose: 50.0 mg/kg/injection, schedule: Q04DX002 (ip), vehicle: gum acacia 100 % of control | dose: 75.0 mg/kg/injection, schedule: Q04DX002 (ip), vehicle: gum acacia 100 % of control | dose: 100.0 mg/kg/injection, schedule: Q01DX009 (ip), vehicle: gum acacia 89 % of control | dose: 100.0 mg/kg/injection, schedule: Q04DX002 (ip), vehicle: gum acacia 104 % of control | dose: 200.0 mg/kg/injection, schedule: Q01DX009 (ip), vehicle: gum acacia 105 % of control | dose: 200.0 mg/kg/injection, schedule: Q04DX002 (ip), vehicle: gum acacia 107 % of control | dose: 400.0 mg/kg/injection, schedule: Q01DX009 (ip), vehicle: gum acacia 89 % of control

CN(C)CCCn1c2c(c3ccccc31)CCCCCC2
inactive: dose: 6.25 mg/kg/injection, schedule: Q01DX009 (ip), vehicle: saline 96 % of control | dose: 12.5 mg/kg/injection, schedule: Q01DX009 (ip), vehicle: saline 93 % of control | dose: 25.0 mg/kg/injection, schedule: Q01DX009 (ip), vehicle: saline 98 % of control | [4] 102 % of control

CCCCn1c(N)n[nH]c1=S
inactive: [1] 100 % of control | [2] 90 % of control | [3] 94 % of control

O=Cc1ccc2ccc3cccc4ccc1c2c34
inactive: [11] 98 % of control | [12] 95 % of control | [13] 95 % of control

CCC(CO)ON=C(C)C (stereo not drawn)
inactive: dose: 100.0 mg/kg/injection, schedule: Q01DX001 (ip), vehicle: saline 104 % of control | dose: 200.0 mg/kg/injection, schedule: Q01DX001 (ip), vehicle: saline 104 % of control | dose: 400.0 mg/kg/injection, schedule: Q01DX001 (ip), vehicle: saline 102 % of control

COc1cccc(/C=C/C(=O)C2CCCCC2)c1
inactive: dose: 50.0 mg/kg/injection, schedule: Q01DX009 (ip), vehicle: saline with Tween-80 101 % of control | dose: 100.0 mg/kg/injection, schedule: Q01DX009 (ip), vehicle: saline with Tween-80 97 % of control | dose: 200.0 mg/kg/injection, schedule: Q01DX009 (ip), vehicle: saline with Tween-80 101 % of control

Cc1ccc(NC(=S)Nc2ccc(C(C)C)cc2)c(C)c1
inactive: [5] 118 % of control | [6] 103 % of control | [7] 100 % of control

OCCCNc1nc2cc(Br)ccc2c2ccc(Br)cc12
inactive: [14] 90 % of control | [15] 105 % of control | [16] 97 % of control

CCCCCCCCCCCCCCCC(=O)Oc1ccc(C(=S)N2CCOCC2)cc1
inactive: [14] 103 % of control | [15] 99 % of control | [16] 99 % of control

Nc1ccccc1SC(CC(=O)c1ccccc1)c1ccccc1 (stereo not drawn)
inactive: [11] 93 % of control and 96 % of control | [1] 91 % of control | [12] 100 % of control and 103 % of control | [2] 93 % of control and 109 % of control | [13] 98 % of control and 104 % of control | [3] 95 % of control and 91 % of control

C(Sc1ccccc1)=C(Sc1ccccc1)Sc1ccccc1
inactive: dose: 6.25 mg/kg/injection, schedule: Q01DX009 (ip), vehicle: other 94 % of control | dose: 125.0 mg/kg/injection, schedule: Q01DX009 (ip), vehicle: other 105 % of control | dose: 250.0 mg/kg/injection, schedule: Q01DX009 (ip), vehicle: other 98 % of control

O=S(=O)(SSS(=O)(=O)c1ccc(Cl)cc1)c1ccc(Cl)cc1
inactive: [17] 90 % of control | [18] 90 % of control | [19] 90 % of control

N#CC1(NC(Cc2ccccc2)c2ccccc2)CCCCCCCCCCC1 (stereo not drawn)
inactive: [11] 101 % of control | [12] 94 % of control | [13] 97 % of control

CC(=O)NC1C(OCc2ccccc2)OC(COC(c2ccccc2)(c2ccccc2)c2ccccc2)C(OS(=O)(=O)c2ccc(C)cc2)C1OCc1ccccc1 (stereo not drawn)
inactive: [20] 100 % of control | [21] 86 % of control | [22] 100 % of control

Cc1cc(S(=O)(=O)c2cc(C)c(O)c(C(N)=O)c2)cc(C(N)=O)c1O
inactive: dose: 100.0 mg/kg/injection, schedule: Q04DX002 (ip), vehicle: carboxymethylcellulose (CMC) 95 % of control | dose: 200.0 mg/kg/injection, schedule: Q04DX002 (ip), vehicle: carboxymethylcellulose (CMC) 103 % of control | dose: 400.0 mg/kg/injection, schedule: Q04DX002 (ip), vehicle: carboxymethylcellulose (CMC) 98 % of control

CC1CC(C)(C)N/C(=C/C(=O)N2Cc3cc4ccccc4nc3C2)O1 (stereo not drawn)
inactive: [8] 86 % of control | [10] 88 % of control

O=c1oc2ccc(O)cc2c2ccccc12
inactive: [17] 105 % of control | [18] 97 % of control | [19] 103 % of control

O=c1cc(-c2ccccc2)nc2ccccn12
inactive: [20] 101 % of control | [21] 101 % of control | [22] 95 % of control

COc1ccc(C(=O)/C=C/c2cccc(OC)c2O)cc1
inactive: dose: 75.0 mg/kg/injection, schedule: Q04DX003 (ip), vehicle: saline 101 % of control | dose: 150.0 mg/kg/injection, schedule: Q04DX003 (ip), vehicle: saline 91 % of control | dose: 300.0 mg/kg/injection, schedule: Q04DX003 (ip), vehicle: saline 101 % of control

COc1ccc(C(=O)c2ccccc2)c(OC(=O)Nc2ccc(Cl)cc2)c1
inactive: [23] 109 % of control | [24] 105 % of control | [25] 100 % of control

CCOC(=O)NC1CCC2c3ccccc3C([N+](=O)[O-])(C1)c1ccccc12 (stereo not drawn)
inactive: [1] 106 % of control | [2] 95 % of control | [3] 90 % of control

O=C(NCCCl)Nc1ccc(Cl)cc1
inactive: [8] 104 % of control | [9] 102 % of control | [10] 91 % of control

COc1ccc(OC)c(NC(=O)Nc2cccc(C(C)=O)c2)c1
inactive: [23] 96 % of control | [24] 106 % of control | [25] 102 % of control
